Laboratory results from patent EP0716856B1, “Therapeutic uses of 2',5'-oligoadenylate derivatives” (Temple University of the Commonwealth System of Higher …, priority 1988, dated 1989).

Target: T1, HIV-1 reverse transcriptase (Human immunodeficiency virus type 1 group M subtype B, UniProt P04585)
T1 construct: used as a source of HIV-1 reverse transcriptase; endogenous in cells; host or cells: Virions pelleted from conditioned supernatant of H9 cells infected with HTLV-IIIB, lysed with Triton X-100
Assay: Inhibition of HIV-1 reverse transcriptase activity in vitro (viral lysate, poly(A).(dT)15 template-primer, [3H]dTTP incorporation)
Assay type: biochemical
Conditions: Concentration 400 micromolar; 37°C, 1 h; read-out: Percent Inhibition
Protocol: Reverse Transcriptase Assays. Virus was concentrated from cell-free ([…]) conditioned H9/HTLV-IIIB culture supernatants by centrifugation at 18,000 r.p.m. for 4 h at 20°C in a Beckman JA-20 rotor. A viral pellet obtained from 50 ml of conditioned culture fluid was dissolved in 0.5 mL of a solution containing 17 mM Tris-HCl (pH 7.8), 3mM dithiothreitol (DTT), 55 mM KC1, 0.32% w/v Triton X-100, and 33% glycerol. This viral lysate was stored at -20°C and was used as a source of HIV-1 reverse transcriptase. Reverse transcriptase reactions were performed in 100 µL reaction volumes containing 40 mM Tris-HC1 (pH 7.8), 4 mM DTT, 50 mM KCl, 10 mM MgCl2, 0.0325% w/v Triton X-100, 3 micromolar [^33H]dTTP (80 Ci/mmol,NEN) and poly (A).(dT)15 (2.5 microgram/mL) template-primer after the addition of 10 microliter enzyme. Inhibitors were added at various concentrations after adjusting water volumes so that reaction volumes remained constant. Reactions were incubated at 37°C for 1 h in a humidified environment and terminated by adding 2 mL of 10% cold trichloroacetic acid. Precipitate was collected on 0.45 µm cellulose-acetate Millipore filters which were then dissolved in 10 mL of 3a70B aqueous scintillant and the counts per minute quantitated using a Beckman LS 6800 liquid scintillation spectrometer.

SMILES | inhibition at 400 µM
Nc1ncnc2c1ncn2[C@@H]1O[C@H](CO)[C@@H](O)[C@H]1O [(adenosine) A, adenosine] | 0%
Nc1ncnc2c1ncn2[C@@H]1O[C@H](CO)C[C@H]1O [cordycepin (C), 3'-deoxyadenosine] | 0%
